Assay results taken from patent US6288070A, “Triazolopurine derivatives, medicinal composition containing the derivatives, adenosine A3 receptor compatibilizing agent, and asthmatic remedy” (Otsuka Pharmaceutical Factory, Inc., priority 1998, dated 2001).
Read-outs that look alike come from different tables or passages of the source.

How the values were obtained:
adenosine A1 receptor = target: T1, adenosine A1 receptor (Rattus norvegicus, UniProt P25099); assay: biochemical
T1 sequence (P25099 1-326): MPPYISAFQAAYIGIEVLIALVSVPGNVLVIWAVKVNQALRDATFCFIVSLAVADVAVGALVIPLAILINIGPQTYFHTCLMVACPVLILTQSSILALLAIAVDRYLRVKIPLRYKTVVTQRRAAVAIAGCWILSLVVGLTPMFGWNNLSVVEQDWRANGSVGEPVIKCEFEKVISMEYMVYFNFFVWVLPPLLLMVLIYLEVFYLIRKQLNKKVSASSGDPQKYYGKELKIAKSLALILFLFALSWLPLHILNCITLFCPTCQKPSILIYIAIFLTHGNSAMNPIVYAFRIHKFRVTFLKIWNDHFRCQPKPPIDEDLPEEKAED

adenosine A3 receptor = target: T2, adenosine A3 receptor (Homo sapiens, UniProt P0DMS8); assay: biochemical; conditions: [125I]AB-MECA, membrane of HEK-293 cells transformed with A3 receptor plasmid, read-out: Receptor binding capacity (IC50) Adenosine A3
T2 construct: expressed in transfected cells; host or cells: HEK-293
T2 sequence (P0DMS8 1-318): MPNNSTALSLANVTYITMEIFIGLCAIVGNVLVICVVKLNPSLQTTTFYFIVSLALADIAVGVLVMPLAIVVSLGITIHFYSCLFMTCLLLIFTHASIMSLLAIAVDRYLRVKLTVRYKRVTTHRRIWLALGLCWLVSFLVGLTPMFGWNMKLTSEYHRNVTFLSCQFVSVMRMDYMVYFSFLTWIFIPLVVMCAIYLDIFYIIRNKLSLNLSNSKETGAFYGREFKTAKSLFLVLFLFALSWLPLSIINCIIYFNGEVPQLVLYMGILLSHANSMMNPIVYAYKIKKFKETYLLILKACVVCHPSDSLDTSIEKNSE

adenosine A2 receptor = target: T3, adenosine A2 receptor (Rattus norvegicus, UniProt P30543); assay: Adenosine A2 receptor binding capacity
T3 construct: from tissue
T3 sequence (P30543 whole entry): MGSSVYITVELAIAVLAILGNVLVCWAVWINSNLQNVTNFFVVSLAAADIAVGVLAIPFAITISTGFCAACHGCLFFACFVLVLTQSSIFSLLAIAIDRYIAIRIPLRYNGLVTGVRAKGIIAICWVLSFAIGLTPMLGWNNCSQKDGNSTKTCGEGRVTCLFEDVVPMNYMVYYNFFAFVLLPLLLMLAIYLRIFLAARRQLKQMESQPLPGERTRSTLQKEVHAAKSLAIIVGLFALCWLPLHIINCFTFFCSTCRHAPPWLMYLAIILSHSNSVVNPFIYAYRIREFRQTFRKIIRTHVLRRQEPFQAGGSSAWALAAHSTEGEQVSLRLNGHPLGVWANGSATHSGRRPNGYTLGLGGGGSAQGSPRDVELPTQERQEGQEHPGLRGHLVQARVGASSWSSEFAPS

[1] = adenosine A2 receptor, read-out: Receptor binding capacity (IC50) Adenosine A2

SMILES: Cc1nc2[nH]cnc2c2nc(-c3ccccc3)nn12 [Example 1, 5-methyl-8-phenyl-1H-1,2,4-triazolo[5,1-i]purine]
- IC50 (adenosine A1 receptor): 101 nM

SMILES: COc1cc(-c2nc3c4[nH]cnc4nc(C)n3n2)cc(OC)c1OC [Example 2]
- IC50 (adenosine A3 receptor): 96 nM

SMILES: Cc1nc2nc[nH]c2c2nc(-c3cccnc3)nn12 [Example 3]
- IC50 (adenosine A1 receptor): 2600 nM
- IC50 (adenosine A3 receptor): 95 nM
- IC50 (adenosine A2 receptor; [1]): 3000 nM

SMILES: CCCCc1nc2[nH]cnc2c2nc(-c3ccc(C)cc3)nn12 [Example 5]
- IC50 (adenosine A2 receptor; [1]): 184 nM

SMILES: CCCCc1nc2nc[nH]c2c2nc(-c3ccccc3O)nn12 [Example 6]
- IC50 (adenosine A1 receptor): 178 nM
- IC50 (adenosine A3 receptor): < 1 nM
- IC50 (adenosine A2 receptor; [1]): 247 nM

SMILES: CCCCc1nc2[nH]cnc2c2nc(-c3cc(OC)c(OC)c(OC)c3)nn12 [Example 12, 5-n-butyl-8-(3,4,5-trimethoxyphenyl)-1H-1,2,4-triazolo[5,1-i]purine]
- IC50 (adenosine A1 receptor): 1000 nM

SMILES: CCCCc1nc2[nH]cnc2c2nc(-c3cccnc3)nn12 [Example 13]
- IC50 (adenosine A1 receptor): 228 nM

SMILES: CCCCc1nc2[nH]cnc2c2nc(-c3ccco3)nn12 [Example 15]
- IC50 (adenosine A1 receptor): 42 nM

SMILES: CCCCc1nc2nc[nH]c2c2nc(/C=C/c3ccccc3)nn12 [Example 17]
- IC50 (adenosine A1 receptor): 1300 nM
- IC50 (adenosine A3 receptor): 1.1 nM
- IC50 (adenosine A2 receptor; [1]): 723 nM

SMILES: c1ccc(-c2nc3c4nc[nH]c4nc(-c4ccccc4)n3n2)cc1 [Example 18]
- IC50 (adenosine A1 receptor): 6.4 nM

SMILES: COc1cc(-c2nc3c4[nH]cnc4nc(-c4ccccc4)n3n2)cc(OC)c1OC [Example 19]
- IC50 (adenosine A1 receptor): 93 nM
- IC50 (adenosine A3 receptor): 1.5 nM
- IC50 (adenosine A2 receptor; [1]): 546 nM

SMILES: c1ccc(-c2nc3nc[nH]c3c3nc(-c4cccnc4)nn23)cc1 [Example 20]
- IC50 (adenosine A1 receptor): 21 nM
- IC50 (adenosine A3 receptor): 7.4 nM
- IC50 (adenosine A2 receptor; [1]): 31 nM

SMILES: CCCc1nc2nc[nH]c2c2nc(-c3ccccc3)nn12 [Example 23]
- IC50 (adenosine A2 receptor; [1]): 115 nM

SMILES: CCCCCc1nc2nc[nH]c2c2nc(-c3ccccc3)nn12 [Example 34, 5-pentyl-8-phenyl-1H-1,2,4-triazolo[5,1-i]purine]
- IC50 (adenosine A2 receptor; [1]): 205 nM

SMILES: Cc1cccc(-c2nc3nc[nH]c3c3nc(-c4ccccc4)nn23)c1 [Example 35]
- IC50 (adenosine A3 receptor): < 1 nM
- IC50 (adenosine A2 receptor; [1]): 111 nM

SMILES: CCCCCCCc1nc2nc[nH]c2c2nc(-c3ccccc3)nn12 [Example 37]
- IC50 (adenosine A3 receptor): 9 nM
- IC50 (adenosine A2 receptor; [1]): 3700 nM

SMILES: CCCCc1nc2[nH]cnc2c2nc(-c3ccc(N(C)C)cc3)nn12 [Example 42]
- IC50 (adenosine A2 receptor; [1]): > 10000 nM

SMILES: CCCCc1nc2[nH]cnc2c2nc(-c3ccc(OCCC)cc3)nn12 [Example 45]
- IC50 (adenosine A2 receptor; [1]): > 10000 nM

SMILES: CCCCc1nc2nc[nH]c2c2nc(-c3ccc(OCc4ccccc4)cc3)nn12 [Example 49]
- IC50 (adenosine A3 receptor): 1.7 nM
- IC50 (adenosine A2 receptor; [1]): > 10000 nM

SMILES: CCCCc1nc2nc[nH]c2c2nc(-c3ccc(-c4ccccc4)cc3)nn12 [Example 50]
- IC50 (adenosine A2 receptor; [1]): > 10000 nM

SMILES: CCCCc1nc2nc[nH]c2c2nc(-c3ccc(OC)c(OC)c3)nn12 [Example 51]
- IC50 (adenosine A3 receptor): 1.6 nM
- IC50 (adenosine A2 receptor; [1]): > 10000 nM

SMILES: CCCCc1nc2nc[nH]c2c2nc(-c3ccc(N(CC)CC)cc3)nn12 [Example 54]
- IC50 (adenosine A3 receptor): 7.8 nM
- IC50 (adenosine A2 receptor; [1]): > 10000 nM

SMILES: CCCCc1nc2nc[nH]c2c2nc(-c3ccc(OC(F)(F)F)cc3)nn12 [Example 58]
- IC50 (adenosine A3 receptor): 5.8 nM
- IC50 (adenosine A2 receptor; [1]): > 10000 nM

SMILES: CCCCc1nc2[nH]cnc2c2nc(-c3ccc(C(F)(F)F)cc3)nn12 [Example 59]
- IC50 (adenosine A2 receptor; [1]): > 10000 nM

SMILES: CCCCc1nc2nc[nH]c2c2nc(-c3ccc(N(Cc4ccccc4)Cc4ccccc4)cc3)nn12 [Example 60]
- IC50 (adenosine A3 receptor): 15 nM
- IC50 (adenosine A2 receptor; [1]): > 10000 nM

SMILES: CCCCc1nc2nc[nH]c2c2nc(-c3ccc(NCc4ccccc4)cc3)nn12 [Example 61]
- IC50 (adenosine A3 receptor): < 1 nM
- IC50 (adenosine A2 receptor; [1]): 1800 nM

SMILES: CCCCc1nc2nc[nH]c2c2nc(-c3ccc(Oc4ccccc4)cc3)nn12 [Example 62]
- IC50 (adenosine A3 receptor): 6.6 nM
- IC50 (adenosine A2 receptor; [1]): > 10000 nM

SMILES: CCCCc1nc2nc[nH]c2c2nc(-c3ccc(NC)cc3)nn12 [Example 63]
- IC50 (adenosine A3 receptor): 1 nM
- IC50 (adenosine A2 receptor; [1]): 2400 nM

SMILES: CCCCc1nc2nc[nH]c2c2nc(-c3ccc4ccccc4c3)nn12 [Example 64]
- IC50 (adenosine A3 receptor): < 1 nM
- IC50 (adenosine A2 receptor; [1]): 716 nM

SMILES: CCCCc1nc2nc[nH]c2c2nc(-c3ccc(CP(=O)(OCC)OCC)cc3)nn12 [Example 65]
- IC50 (adenosine A3 receptor): 3.7 nM
- IC50 (adenosine A2 receptor): > 10000 nM

SMILES: CCCCc1nc2nc[nH]c2c2nc(-c3ccc(SC)cc3)nn12 [Example 66]
- IC50 (adenosine A2 receptor; [1]): > 10000 nM

SMILES: CCCCc1nc2nc[nH]c2c2nc(-c3ccc(CC)cc3)nn12 [Example 67]
- IC50 (adenosine A3 receptor): 5.4 nM
- IC50 (adenosine A2 receptor; [1]): 1800 nM

SMILES: CCCCc1nc2nc[nH]c2c2nc(-c3ccc(C(C)C)cc3)nn12 [Example 68]
- IC50 (adenosine A3 receptor): 5.1 nM
- IC50 (adenosine A2 receptor; [1]): > 10000 nM

SMILES: CCCCc1nc2[nH]cnc2c2nc(-c3ccc(C(C)(C)C)cc3)nn12 [Example 69]
- IC50 (adenosine A2 receptor; [1]): > 10000 nM
